The test system of the test is primary cultures of osteoblasts from fetal rat calvarias. Nature of the test: in vitro DNA-synthesis assay. The class given is cell-based. The procedure: Compounds of general formula (I) were tested in an in vitro DNA-synthesis assay. The cells used were primary cultures of osteoblasts from fetal rat calvarias. The experiments were performed in an analogous manner as published in Pfeilschifter et al., Endocrinology 126, 703 (1990).

For Ada-Aba-W, the “Biological activity in % compared to control (100%)” value (“Biological activity in %” below) (0.001 μg/ml) stood at 173%; the “Biological activity in %” value (0.01 μg/ml) was 184%; the “Biological activity in %” value (0.1 μg/ml) was determined as 228%; the “Biological activity in %” value (1.0 μg/ml) is reported as 223%; the “Biological activity in %” value (10 μg/ml) worked out at 261%.

For the substance Ada-Ava-W, the “Biological activity in %” value (0.001 μg/ml) was 116%; the “Biological activity in %” value (0.01 μg/ml) was determined as 152%; the “Biological activity in %” value (0.1 μg/ml) was 182%; the “Biological activity in %” value (1.0 μg/ml) was 183%; the “Biological activity in %” value (10 μg/ml) came out at 229%.

Take Ada-SAW: the “Biological activity in %” value (0.001 μg/ml) is listed as 122%; the “Biological activity in %” value (0.01 μg/ml) was 148%; the “Biological activity in %” value (0.1 μg/ml) is 199%; the “Biological activity in %” value (1.0 μg/ml) was determined as 162%; the “Biological activity in %” value (10 μg/ml) is recorded as 188%.

These data come from patent US6429288B1, “Peptides containing an arginine mimetic for the treatment of bone metabolic disorders, their production, and drugs containing these compounds” (Roche Diagnostics GmbH, priority 1997, dated 2002).
